According to PMC6406907, “A H2AX–CARP-1 Interaction Regulates Apoptosis Signaling Following DNA Damage” (Cancers, 2019):
No end group written: not given here.

Legend:
H2AX (1–35) peptide = molecular target: T1, H2AX (1–35) peptide (Homo sapiens, UniProt P16104); assay: Surface plasmon resonance, CARP-1 peptide with H2AX (1–35) peptide; assay type: binding; details: SPR, PBST pH 7.4, 25 °C, 1:1 global fit
T1 construct: CARP-1 (636–650) and H2AX (1–35) peptides, each with ≥90% purity, were commercially synthesized; purchased
Method: Affinity purification of the Gst-tagged or His-tagged fusion proteins was carried out essentially following procedure previously described by us. Briefly, the bacteria expressing respective fusion protein were cultured in 500 mL of LB medium containing ampicillin until the OD600 reached 0.4–0.6. Protein expression was induced by addition of IPTG over an additional 2–4-h incubation at 37 °C. Cells were harvested, and pellets were stored overnight at −80 °C, and lysed in 4–5 mL of BPER lysis buffer containing DNAse I as detailed above. […] Fractions containing eluted fusion protein were pooled, and dialyzed overnight at 4 °C in 1–2 L of 1× Tris-buffered saline (BioRad, Hercules, CA, USA) with multiple buffer changes. Following measurement of protein concentration, the purified protein was aliquoted and snap-frozen in liquid N2 for storage. […]
Next, kinetics of CARP-1 binding with H2AX were determined by surface plasmon resonance (SPR) technology (Profacgen, Shirley, NY, USA). […] The signal changes after binding and washing (in AU) were recorded as the assay value. Selected protein-grafted regions in the SPR images were analyzed, and the average reflectivity variations of the chosen areas were plotted as a function of time. Real-time binding signals were recorded and analyzed using a data analysis module (DAM) obtained from Plexera Bioscience (Seattle, WA, USA). […]

DBC1 (CCAR2) = assay: Co-immunoprecipitation with Dbc1 (CCAR2); assay type: cell-based; details: Dbc1-expressing PT67 (NIH3T3 murine fibroblast subline) cells, anti-Flag IP
Method: (Clontech) were first transfected with recombinant PLNCX2/Flag-Dbc1 plasmid (10), and stable, neomycin-resistant sublines were generated and characterized for Dbc1 expression essentially as described by us before (5; [35]). The Dbc1 expressing PT67 cells were then separately transfected with pcDNA3 vector, pcDNA3-Gst, pcDNA3-Gst-H2AX, pcDNA3-EGFP, or pcDNA3-EGFP-H2AX (1–35) plasmids. Approximately 1mg of cell lysate from each of transfected, Dbc1-expressing, PT67 cells was subjected to immunoprecipitation using anti-Flag tag M2 antibodies (F1804, Sigma). The immunoprecipitates were then analyzed by WB by probing the membrane with anti-Gst (top autoradiograph), anti-p53 D2H90 rodent specific rabbit mAb (32532S; Cell Signaling; 2nd autoradiograph from top), or anti-Fag tag (for Dbc1) antibodies (3rd autoradiograph from top). The membranes containing […] of respective cell lysates (marked as whole cell lysates) were subsequently probed with anti-Gst tag (Bottom left autoradiograph) or anti-EGFP antibodies (Bottom right autoradiograph) to ascertain expression of transfected, Gst, Gst-tagged H2AX proteins, EGFP, and EGFP-H2AX (1–35) proteins. The presence of respective proteins is indicated by an arrowhead on the left side of each blot. Approximate location of various molecular weight markers is indicated on the right side of each blot. kDa, kilodalton.
© 2019 by the authors. […]

Gst-H2AX = assay: Gst-pulldown with Gst-H2AX; assay type: binding, human; details: E. coli-expressed, 4 °C, 2 h, WB anti-HA, Figure 5A
Method: (§1) Logarithmically growing cells were either untreated or treated with different agents for various time periods. The cells were lysed to prepare protein extracts. IP was carried out by incubating approximately 1 mg of the protein lysate with appropriate antibodies. The immunoprecipitates were then analyzed by SDS-PAGE, followed by WB with respective, interacting protein. For Gst-pulldown, Gst-H2AX or various His-TAT-HA-tagged CARP-1 peptides were generated in Escherichia coli (E. coli) BL21 cells essentially as described by us previously. Briefly, the competent E. coli BL-21 (DE3) pLysS cells were transformed separately with various recombinant pGEX-4T-1 or pTAT-HA constructs. The transformed cells were then subjected to selection by combined presence of ampicillin and chloramphenicol; various isolates for each transformation were obtained and bacterial lysates were characterized for expression of fusion peptides. Cells from each isolate were grown in 4 mL of LB medium containing ampicillin only until the optical density (OD)600 reached 0.4–0.8. Expression of fusion peptides was induced over 2–4 h incubation periods after Isopropyl β-D-1-thiogalactopyranoside (IPTG) addition. The cells were harvested, and pellets were stored at −80 °C overnight. […]

Gst-H2AX (1–35) = assay: Gst-pulldown with Gst-H2AX (1–35); assay type: binding, human; details: E. coli-expressed, 4 °C, 2 h, WB anti-HA, Figure 5B
Method: as §1

MDA-MB-231 HBC cells = details: MDA-MB-231, compared with untreated counterparts; ref [34]; cited from earlier work
[1] = system: CARP-1, phospho-JNK1/2, phospho-H2AX, PARP; assay: Western blot of CARP-1, phospho-JNK1/2, γH2AX, cleaved PARP in MDA-MB-468; assay type: cell-based, human

With “WSKLDPKTMKVNDLRKELESRALSSKGLKS [CARP-1 (631–660)]” as the molecule, how does the kon (H2AX (1–35) peptide; read-out: Ka (association rate constant)) read?
Its kon is 2320 M⁻¹ s⁻¹.

What about the koff (H2AX (1–35) peptide; read-out: Kd (dissociation rate constant)) of the same molecule?
Its koff is 0.000292 s⁻¹.

For “H2AX (1–35): commercially synthesized H2AX (1–35) peptide; epitope of H2AX (tested as EGFP-tagged protein) (MSGRGKTGGKARAKAKSRSSRAGLQFPVGRVHRLL; UniProt P16104 1-35, looked up, fragment)”, which “interaction with DBC1” value (DBC1 (CCAR2)) is on record?
Its value is “does not interact”.

Which “binding with Gst-H2AX protein” value (Gst-H2AX) does the source give for “His-TAT-HA-CARP-1 (631–660): E. coli-expressed His-TAT-HA-tagged CARP-1 peptide (WSKLDPKTMKVNDLRKELESRALSSKGLKS; also: His, TAT and HA tags kept, end not given here)” here?
Its value is “bound with Gst-H2AX protein”.

And the “binding with Gst-H2AX (1–35)” value (Gst-H2AX (1–35))?
The value was “bound with Gst-H2AX and Gst-H2AX (1–35) proteins”.

Which viabilities (MDA-MB-231 HBC cells) does the source give for `Cc1cc(NC(=O)c2cccc(NC(=O)/C=C/CN(C)C)c2)ccc1Nc1nccc(-c2cccnc2)n1` [JNK-IN-8] here?
The viabilities was “significantly reduced viabilities”.

What about the JNK activation ([1]; MDA-MB-468, 5 μM JNK-IN-8, WB) of the same molecule?
Its JNK activation is “total loss of JNK activation”.

What about the “levels of CARP-1” value ([1]; MDA-MB-468, combination of JNK-IN-8 (5 μM) with Adriamycin, WB) of the same molecule?
Its value is “elevated levels of CARP-1”.

What about the γH2AX ([1]; MDA-MB-468, combined presence of JNK-IN-8 (5 μM) and Adriamycin, WB) of the same molecule?
Its γH2AX is “reduced levels of γH2AX”.

What about the “levels of CARP-1” value ([1]; MDA-MB-468, single agent (JNK-IN-8 at 5 μM), WB) of the same molecule?
Its value is “elevated levels of CARP-1”.
